Key:
[1] = target: T1, SMARCA2-HiBiT HeLa cells (protein which is expressed from the SMARCA2 gene) (Homo sapiens, UniProt P51531); assay: SMARCA2 degradation assay (HiBiT-fusion HeLa cell line, 24 h, luminescence); type: cell-based
T1 construct: protein which is expressed from the SMARCA2 and SMARCA4 genes; host or cells: HeLa (SMARCA2-HiBiT engineered line)
Method in brief: (§1)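 SMARCA2- or SMARCA4-HiBiT HeLa cells seeded overnight at 37° C, then given compound as a 10-point dilution (typically 10 μM to 300 pM) for 24 h at 37° C. Protein level read by HiBiT lytic detection luminescence; DC50 from dose-response curves; degradation also scored at 1 μM.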

[2] = target: T2, SMARCA4-HiBiT HeLa cells (protein which is expressed from the SMARCA4 gene) (Homo sapiens, UniProt P51532); assay: SMARCA4 degradation assay (HiBiT-fusion HeLa cell line, 24 h, luminescence); type: cell-based
T2 construct: protein which is expressed from the SMARCA2 and SMARCA4 genes; host or cells: HeLa (SMARCA4-HiBiT engineered line)
Method in brief: as §1

T2 sequence (P51532 whole entry, the tested form may be a part): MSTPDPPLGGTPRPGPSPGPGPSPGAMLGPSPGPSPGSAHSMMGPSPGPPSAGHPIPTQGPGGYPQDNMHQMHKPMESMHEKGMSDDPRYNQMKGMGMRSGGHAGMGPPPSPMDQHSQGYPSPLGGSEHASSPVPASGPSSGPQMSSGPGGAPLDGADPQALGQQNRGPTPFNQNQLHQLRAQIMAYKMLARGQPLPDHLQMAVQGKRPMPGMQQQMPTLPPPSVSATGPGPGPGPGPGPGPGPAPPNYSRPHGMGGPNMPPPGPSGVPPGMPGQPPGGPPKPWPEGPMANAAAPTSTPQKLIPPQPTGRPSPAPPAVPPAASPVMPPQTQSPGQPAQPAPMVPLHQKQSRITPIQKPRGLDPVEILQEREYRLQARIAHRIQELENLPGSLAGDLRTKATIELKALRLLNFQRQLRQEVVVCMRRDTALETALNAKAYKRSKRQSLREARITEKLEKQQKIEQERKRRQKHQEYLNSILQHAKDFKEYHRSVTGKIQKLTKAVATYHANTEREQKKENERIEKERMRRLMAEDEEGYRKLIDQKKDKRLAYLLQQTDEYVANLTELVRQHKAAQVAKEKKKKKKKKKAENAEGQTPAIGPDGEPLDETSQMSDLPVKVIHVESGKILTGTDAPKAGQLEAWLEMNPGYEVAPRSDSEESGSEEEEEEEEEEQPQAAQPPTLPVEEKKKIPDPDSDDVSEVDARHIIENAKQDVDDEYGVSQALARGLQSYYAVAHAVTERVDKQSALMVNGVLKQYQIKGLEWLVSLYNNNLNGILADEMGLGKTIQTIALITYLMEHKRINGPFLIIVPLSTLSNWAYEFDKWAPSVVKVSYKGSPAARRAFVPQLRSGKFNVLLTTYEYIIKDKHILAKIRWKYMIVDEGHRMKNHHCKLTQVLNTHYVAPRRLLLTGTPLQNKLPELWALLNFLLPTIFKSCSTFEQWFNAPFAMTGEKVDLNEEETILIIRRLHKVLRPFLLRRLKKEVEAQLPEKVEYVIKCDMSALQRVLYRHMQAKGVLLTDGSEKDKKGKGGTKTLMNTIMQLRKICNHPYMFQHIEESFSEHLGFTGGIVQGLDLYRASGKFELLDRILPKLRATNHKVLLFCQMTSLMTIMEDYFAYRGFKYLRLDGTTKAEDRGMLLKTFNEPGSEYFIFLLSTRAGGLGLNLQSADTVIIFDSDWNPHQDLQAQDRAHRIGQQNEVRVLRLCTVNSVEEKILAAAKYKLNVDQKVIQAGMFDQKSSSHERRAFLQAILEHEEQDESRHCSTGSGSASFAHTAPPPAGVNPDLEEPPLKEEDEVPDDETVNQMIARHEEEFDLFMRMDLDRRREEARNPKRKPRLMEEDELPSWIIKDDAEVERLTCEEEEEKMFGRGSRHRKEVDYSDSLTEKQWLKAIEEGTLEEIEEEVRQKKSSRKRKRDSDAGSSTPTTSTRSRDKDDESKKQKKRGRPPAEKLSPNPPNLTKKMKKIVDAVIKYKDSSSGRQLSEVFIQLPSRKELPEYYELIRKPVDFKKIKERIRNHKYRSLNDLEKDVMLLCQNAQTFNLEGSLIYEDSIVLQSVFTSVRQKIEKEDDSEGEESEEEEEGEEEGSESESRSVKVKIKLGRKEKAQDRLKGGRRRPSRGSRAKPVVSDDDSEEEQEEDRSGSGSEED
T1 sequence (P51531 whole entry, the tested form may be a part): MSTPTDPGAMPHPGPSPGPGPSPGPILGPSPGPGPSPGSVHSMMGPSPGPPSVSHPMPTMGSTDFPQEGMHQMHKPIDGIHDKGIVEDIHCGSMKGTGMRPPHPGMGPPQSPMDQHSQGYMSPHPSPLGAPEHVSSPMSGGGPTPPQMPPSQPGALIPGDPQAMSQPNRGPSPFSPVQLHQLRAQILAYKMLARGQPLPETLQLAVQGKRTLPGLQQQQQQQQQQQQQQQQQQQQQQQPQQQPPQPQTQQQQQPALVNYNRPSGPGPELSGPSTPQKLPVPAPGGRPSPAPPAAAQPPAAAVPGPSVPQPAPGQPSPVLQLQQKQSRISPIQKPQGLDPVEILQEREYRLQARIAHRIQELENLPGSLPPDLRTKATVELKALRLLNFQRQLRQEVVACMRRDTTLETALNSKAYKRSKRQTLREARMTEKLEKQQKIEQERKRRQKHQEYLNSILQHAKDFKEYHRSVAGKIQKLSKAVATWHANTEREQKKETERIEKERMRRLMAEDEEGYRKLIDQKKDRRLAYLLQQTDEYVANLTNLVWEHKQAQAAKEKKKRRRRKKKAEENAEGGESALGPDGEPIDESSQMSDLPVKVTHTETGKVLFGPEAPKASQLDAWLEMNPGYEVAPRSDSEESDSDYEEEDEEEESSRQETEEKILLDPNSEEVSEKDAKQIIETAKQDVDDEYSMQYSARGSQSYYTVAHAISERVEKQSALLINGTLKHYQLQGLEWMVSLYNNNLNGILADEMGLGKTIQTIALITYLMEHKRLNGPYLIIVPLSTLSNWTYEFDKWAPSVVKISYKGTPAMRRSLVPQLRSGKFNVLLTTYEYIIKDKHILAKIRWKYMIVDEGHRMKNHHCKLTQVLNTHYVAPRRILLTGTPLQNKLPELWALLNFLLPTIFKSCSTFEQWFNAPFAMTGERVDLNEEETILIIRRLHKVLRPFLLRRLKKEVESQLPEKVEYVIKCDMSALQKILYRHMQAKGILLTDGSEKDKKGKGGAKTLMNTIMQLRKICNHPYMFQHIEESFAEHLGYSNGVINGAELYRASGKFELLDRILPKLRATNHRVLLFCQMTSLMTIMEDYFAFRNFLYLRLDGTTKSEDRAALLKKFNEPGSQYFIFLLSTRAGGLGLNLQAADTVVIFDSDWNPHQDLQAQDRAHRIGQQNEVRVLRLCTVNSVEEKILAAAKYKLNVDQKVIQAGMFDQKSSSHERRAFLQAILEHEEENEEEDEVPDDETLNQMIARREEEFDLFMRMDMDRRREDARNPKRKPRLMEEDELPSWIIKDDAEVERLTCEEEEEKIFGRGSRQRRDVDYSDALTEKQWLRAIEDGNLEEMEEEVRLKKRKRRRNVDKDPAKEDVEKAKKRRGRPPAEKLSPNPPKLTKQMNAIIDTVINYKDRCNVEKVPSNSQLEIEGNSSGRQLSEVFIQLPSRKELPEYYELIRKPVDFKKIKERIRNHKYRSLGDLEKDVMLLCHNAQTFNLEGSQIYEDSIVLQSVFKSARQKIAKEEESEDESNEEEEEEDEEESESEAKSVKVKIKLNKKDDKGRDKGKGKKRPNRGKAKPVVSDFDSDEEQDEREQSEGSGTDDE

SMILES	DC50 [1] [nM]	SMARCA2 % Degradation @ 1 μM ([1]; @ 1 μM)	DC50 [2] [nM]	inhibition at 1 µM ([2]; @ 1 μM) [%]	SMARCA2 % Degradation @ 1 μM ([1]; 1 μM)	inhibition at 1 µM ([2]; 1 μM) [%]
Nc1nnc(-c2ccccc2O)cc1N1CCC2C1CCCN2c1ccnc(C#CCNC(=O)c2cc3ncccn3n2)n1 (centres unmarked) [Compound P-38, N-(3-(4-(1-(3-amino-6-(2-hydroxyphenyl)pyridazin-4-yl)octahydro-4H-pyrrolo[3,2-b]pyridin-4-yl)pyrimidin-2-yl)prop-2-yn-1-yl)pyrazolo[1,5-a]pyrimidine-2-carboxamide]	500 to 5000	+ (+=<30%)	500 to 5000	< 30		
Nc1nnc(-c2ccccc2O)cc1N1CC2CCC(C1)N2c1ccnc(C#CCNC(=O)c2cccnc2)n1 [Compound P-241, N-[3-(4-{3-[3-amino-6-(o-hydroxyphenyl)-4-pyridazinyl]-3,8-diazabicyclo[3.2.1]oct-8-yl}-2-pyrimidinyl)-2-propynyl]nicotinamide]	50 to 500	++ (++=30-70%)	50 to 500	30 to 70		
Nc1nnc(-c2ccccc2O)cc1N1CCCN(c2ccnc(C#CCN3CC(=O)NC(=O)C3)n2)CC1 [Compound P-364, 4-[3-(4-{4-[3-amino-6-(o-hydroxyphenyl)-4-pyridazinyl]-1,4-diazepan-1-yl}-2-pyrimidinyl)-2-propynyl]-2,6-piperazinedione]	500 to 5000	++ (++=30-70%)	500 to 5000	< 30		
C[C@@H]1CCN(c2cc(-c3ccccc3O)nnc2N)CCN1c1ccnc(C#CCN2CC[C@H]2CF)n1 [Compound P-263, o-{5-[(R)-4-(2-{3-[(S)-2-(fluoromethyl)-1-azetidinyl]-1-propynyl}-4-pyrimidinyl)-5-methyl-1,4-diazepan-1-yl]-6-amino-3-pyridazinyl}phenol]	50 to 500	++ (++=30-70%)	< 50	< 30		
Nc1nnc(-c2ccccc2O)cc1N1CCCN(c2ccnc(C#CC3CC3)n2)CC1 [Compound P-359, 0-(6-amino-5-{4-[2-(2-cyclopropylethynyl)-4-pyrimidinyl]-1,4-diazepan-1-yl}-3-pyridazinyl)phenol]	50 to 500	++ (++=30-70%)	50 to 500	< 30		
C[C@@H]1CCN(c2cc(-c3ccccc3O)nnc2N)CCN1c1ccnc(/C=C/CN(C)C)n1 [Compound P-218, o-{5-[(R)-4-{2-[(E)-3-(dimethylamino)-1-propenyl]-4-pyrimidinyl}-5-methyl-1,4-diazepan-1-yl]-6-amino-3-pyridazinyl}phenol]	50 to 500	+++ (+++=>70%)	50 to 500	30 to 70		
C[C@@H]1CCN(c2cc(-c3ccccc3O)nnc2N)CCN1c1ccc(C#N)c(C#CCn2ccnc2)n1 [Compound P-429, 6-{(R)-4-[3-amino-6-(o-hydroxyphenyl)-4-pyridazinyl]-7-methyl-1,4-diazepan-1-y1}-2-[3-(1-imidazolyl)-1-propynyl]nicotinonitrile]	50 to 500		50 to 500		+++ (+++=>70%)	30 to 70

Now from value to compound:

DC50 [1] [nM]	SMARCA2 % Degradation @ 1 μM ([1]; @ 1 μM)	DC50 [2] [nM]	inhibition at 1 µM ([2]; @ 1 μM) [%]	SMARCA2 % Degradation @ 1 μM ([1]; 1 μM)	inhibition at 1 µM ([2]; 1 μM) [%]	SMILES
50 to 500	++ (++=30-70%)	50 to 500	30 to 70			Cc1cc(C)n2ncc(C(=O)NCC#Cc3nccc(N4CCN(c5cc(-c6ccccc6O)nnc5N)CC4)n3)c2n1 [Compound P-70, N-(3-(4-(4-(3-amino-6-(2-hydroxyphenyl)pyridazin-4-yl)piperazin-1-yl)pyrimidin-2-yl)prop-2-yn-1-yl)-5,7-dimethylpyrazolo[1,5-a]pyrimidine-3-carboxamide]
50 to 500	+++ (+++=>70%)	50 to 500	> 70			Nc1nnc(-c2ccccc2O)cc1N1CCCN(c2ccnc(C#CCNc3nc4ccccc4o3)n2)CC1 [Compound P-26, 2-(6-amino-5-(4-(2-(3-(benzo[d]oxazol-2-ylamino)prop-1-yn-1-yl)pyrimidin-4-yl)-1,4-diazepan-1-yl)pyridazin-3-yl)phenol]
50 to 500	+++ (+++=>70%)	50 to 500	> 70			Cc1nc(C)n(CC#Cc2nccc(N3CCN(c4cc(-c5ccccc5O)nnc4N)CC[C@H]3C)n2)c1C [Compound P-185, o-{5-[(R)-5-methyl-4-{2-[3-(2,4,5-trimethyl-1-imidazolyl)-1-propynyl]-4-pyrimidinyl}-1,4-diazepan-1-y1]-6-amino-3-pyridaziny1} phenol]
50 to 500	++ (++=30-70%)	50 to 500	< 30			C[C@@H]1CCN(c2cc(-c3ccccc3O)nnc2N)CCN1c1ccnc(C#CCN2CCOCC2)n1 [Compound P-334, 0-(5-{(R)-5-methyl-4-[2-(3-morpholino-1-propynyl)-4-pyrimidinyl]-1,4-diazepan-1-yl}-6-amino-3-pyridazinyl)phenol]
50 to 500	+++ (+++=>70%)	50 to 500	> 70			CC(C)(C)OC(=O)NC1CCN(CC#Cc2nccc(N3CCCN(c4cc(-c5ccccc5O)nnc4N)CC3)n2)CC1 [Compound P-142, tert-butyl (1-(3-(4-(4-(3-amino-6-(2-hydroxyphenyl)pyridazin-4-yl)-1,4-diazepan-1-yl)pyrimidin-2-yl)prop-2-yn-1-yl)piperidin-4-yl)carbamate]
50 to 500	++ (++=30-70%)	< 50	< 30			CNCC#Cc1nccc(N2CCN(c3cc(-c4ccccc4O)nnc3N)[C@@H](C)C2)n1 [Compound P-292, 0-{5-[(S)-2-methyl-4-{2-[3-(methylamino)-1-propynyl]-4-pyrimidinyl}-1-pipcrazinyl]-6-amino-3-pyridaziny1} phenol]
50 to 500	++ (++=30-70%)	50 to 500	30 to 70			C[C@@H]1CCN(c2cc(-c3ccccc3O)nnc2N)CCN1c1nc(C#CCn2cncn2)ncc1F [Compound P-214, o-{5-[(R)-4-{5-fluoro-2-[3-(1H-1,2,4-triazol-1-yl)-1-propynyl]-4-pyrimidinyl}-5-methyl-1,4-diazepan-1-yl]-6-amino-3-pyridazinyl}phenol]
50 to 500	++ (++=30-70%)	50 to 500	< 30			CC(C#Cc1ncc(F)c(N2CCN(c3cc(-c4ccccc4O)nnc3N)CC[C@H]2C)n1)N(C)C (some centres unmarked) [Compound P-208]
50 to 500		50 to 500		+++ (+++=>70%)	> 70	C[C@@H]1CCN(c2cc(-c3ccccc3O)nnc2N)CCN1c1ccnc(C#CCn2ccnc2)c1 [Compound P-428, 0-{5-[(R)-4-{2-[3-(1-imidazolyl)-1-propynyl]-4-pyridyl}-5-methyl-1,4-diazepan-1-yl]-6-amino-3-pyridazinyl}phenol]
50 to 500		50 to 500		++ (++=30-70%)	30 to 70	C[C@@H]1CCN(c2cc(-c3ccccc3O)nnc2N)CCN1c1cc(C#CCn2ccnc2)ncc1F [Compound P-417, 0-{5-[(R)-4-{5-fluoro-2-[3-(1-imidazolyl)-1-propynyl]-4-pyridyl}-5-methyl-1,4-diazepan-1-yl]-6-amino-3-pyridazinyl} phenol]

Source: patent publication US20260265238A1, “COMPOUNDS AND PHARMACEUTICAL COMPOSITIONS THAT DEGRADE SWI/SNF-RELATED MATRIX-ASSOCIATED ACTIN-DEPENDENT REGULATOR OF CHROMATIN SUBFAMILY A” (Plexium, Inc., priority 2023, published 2026)
